≈ marks a conversion by molar mass, not a printed value.
How the values were obtained:
[1] = Cytotoxicity against human […] cells; format: cell-based
[2] = system: Human immunodeficiency virus 1; assay: Antiviral activity against HIV1-3B infected in human […] cells assessed as inhibition of virus-induced cytopathic effect; format: functional, organism-based; details: Human immunodeficiency virus 1, 3B
[3] = Therapeutic index, ratio of CC50 for human […] cells to EC50 for HIV1-3B; format: cell-based; details: read-out: Ratio CC50/EC50

| SMILES | CC50 [1] [µg/mL] | EC50 [2] [µg/mL] | selectivity ratio [3] |
| --- | --- | --- | --- |
| C=C(CC/C=C(/C)C(=O)O)C1=CC[C@@]2(C)[C@@H]3[C@H]4C[C@H](C(=C)C)[C@@]5(CCC(=O)O4)C[C@@]35CC[C@]12C [ANGUSTIFIC ACID A] | > 200 | 6.11 (≈ 13.1 µM) | > 32.8 |
| C=C(C)[C@@H]1C[C@H](O)[C@@H]2[C@]3(CC[C@]4(C)C([C@@](C)(O)CC/C=C(/C)C(=O)O)=C[C@H](O)[C@@]24C)C[C@]13CCC(=O)O [ANGUSTIFIC ACID B] | 156 (≈ 302 µM) | 11.2 (≈ 21.7 µM) | 13.9 |
| CC1(C)OC(=O)C=C[C@]23C[C@]24C[C@H](O)[C@]2(C)[C@@H]([C@@](C)(O)[C@H]5CC=C(CO)C(=O)O5)CC[C@@]2(C)[C@@H]4C[C@H](O)[C@@H]13 [ANGUSTIFODILACTONE A] | 178 (≈ 336 µM) | 13.3 (≈ 25.1 µM) | 13.4 |
| CC1=CC[C@H]([C@](C)(O)[C@H]2CC[C@@]3(C)[C@@H]4C[C@H](O)[C@H]5C(C)(C)OC(=O)C=C[C@@]56C[C@@]46C[C@H](O)[C@]23C)OC1=O [ANGUSTIFODILACTONE B] | 182 (≈ 354 µM) | 13.6 (≈ 26.4 µM) | 13.4 |
| C/C=C(/C)C(=O)O[C@H]1c2cc3c(c(OC)c2-c2c(cc4c(c2OC)OCO4)C[C@H](C)[C@]1(C)O)OCO3 [INTERIOTHERIN B] | > 200 | 19 (≈ 38.1 µM) | > 10.5 |
| C=C(C)[C@@H]1CC[C@@H]2[C@]3(CC[C@]4(C)C(=O)CC[C@@]24C)C[C@]13CCC(=O)O [MICRANOIC ACID B] | 176 (≈ 511 µM) | 15.7 (≈ 45.6 µM) | 11.2 |
| C=C(C)[C@@H]1CC[C@@H]2[C@]3(CC[C@]4(C)[C@@H]([C@H](C)CC/C=C(/C)C(=O)O)CC[C@@]24C)C[C@]13CCC(=O)O [NIGRANOIC ACID] | 89 (≈ 189 µM) | 10.5 (≈ 22.3 µM) | 8.48 |
| C/C=C(/C)C(=O)O[C@H]1c2cc(OC)c(OC)c(OC)c2-c2c(cc3c(c2OC)OCO3)C[C@H](C)[C@]1(C)O [SCHISANTHERIN B] | > 200 | 22.1 (≈ 42.9 µM) | > 9.05 |
| COc1c2c(cc3c1-c1c(cc4c(c1OC)OCO4)[C@H](OC(=O)c1ccccc1)[C@@](C)(O)[C@@H](C)C3)OCO2 [SCHISANTHERIN D] | > 200 | 20.5 (≈ 39.4 µM) | > 9.76 |
| COc1cc2c(c(OC)c1OC)-c1c(cc(OC)c(OC)c1OC)C[C@](C)(O)[C@@H](C)C2 [SCHIZANDRIN] | > 200 | 15.8 (≈ 36.5 µM) | > 12.7 |
| Cc1cn([C@H]2C[C@H](N=[N+]=[N-])[C@@H](CO)O2)c(=O)[nH]c1=O [ZIDOVUDINE] | > 200 | 0.0033 (≈ 0.0123 µM) | > 60600 |

Reference: ChEMBL document CHEMBL1667812, “Compounds from Kadsura angustifolia with anti-HIV activity” (Bioorg Med Chem Lett, 2011)
